Experimental data taken from patent publication EP3119416B1, “THERAPEUTIC USE OF ADIPOKINETIC HORMONE/RED PIGMENT-CONCENTRATING HORMONE (AKH/RPCH) FAMILY OF PEPTIDES” (Mutlu, Oguz, priority 2015, dated 2017).
Square brackets hold non-standard residues; d marks the D form. Peptide text beside a SMILES is read from it. pGlu = O=C1CC[C@@H](C(=O)O)N1

Experiments:
BALB/c ByJ mice [1] = experiment: Forced Swim Test (FST); type: in vivo; conditions: for immobility time: 60 min before test, compared to control group, Fig 1a/1b; for antidepressant effects in the forced swimming test: male balb-c mice
Protocol: (§1) Male, inbred BALB/c ByJ mice (Uludag University, Bursa, Turkey), 7-8 weeks old at their arrival to the laboratory, were used in this study. They were kept in the laboratory for two weeks before the onset of the experiments. Mice were maintained under standard laboratory conditions (12-h light: 12-h dark cycle, lights on 07:00 h, T=21±1°C). All animals received food and water ad libitum. All procedures described in this assay were conducted in accordance with the European Community Council's Directive for the ethical treatment of animals (86/609/EEC) and with the approval of the Kocaeli University Medical Faculty (7/3/2014).
(§2) In the FST, EPM, and locomotor activity tests, the animals were treated with Ani-AKH (1 and 2 mg/kg) (n=9-10), Lia-AKH (1 and 2 mg/kg) (n=10-12) and Pht-HrTH (1 and 2 mg/kg) (n=10-12) or vehicle (saline with 1% DMSO) (n= 10) for 14 days (chronically) and the drugs were administered intraperitoneally (i.p.) 60 min. before each test in a volume of 0.1 ml/10 g body weight. Separate group of animals used in each test.
The FST employed was similar to a previously described method (Porsolt et al, 1977). Briefly, the mice were dropped individually into Plexiglas cylinders (height 25 cm, diameter 10 cm) containing 10 cm of water maintained at 23-25°C and left there for 6 min. Because this is a situation from which they cannot escape, the animals rapidly become immobile, that is, floating in an upright position and making only small movements to keep their heads above water. The duration of immobility was recorded during the last 4 min of the 6-min testing period.
(§3) The results of the FST, EPM, locomotor activity tests were evaluated by one-way ANOVA followed by Tukey's post-hoc test when significant differences were detected. The data are expressed as the mean values ± SEM. The differences were considered to be statistically significant when p was less than 0.05.

BALB/c ByJ mice [2] = experiment: Elevated Plus-Maze Test (EPM); type: in vivo
Protocol: as §1, §2
In addition, in the EPM (acute) test, Ani- AKH (0.5 and 1 mg/kg) (n= 10 per group) was also administered, just for one time, before the test to investigate the acute effect of the hormone.
Anxiety related behaviour was measured by the elevated plus-maze test. Experiments were conducted in a dimly lit, semi-soundproof room, illuminated with table lamp (80 lux). Maze was made of wood and consisted of two open (29 cm long × 5 cm wide) and closed arms (29 cm × 5 cm with 15 cm high walls) forming a square cross with a 5 cm square center piece. In order to avoid falls the open arms was surrounded by a short (1 cm) Plexiglas edge. The maze was elevated 40 cm above the floor. Each mice was placed at the center of the maze, facing one of the open arms, and was allowed to explore the maze. The open-arm activity was evaluated as: 1) time spent in the open arms relative to the total time spent in the plus maze (300 s), expressed as a percentage 2) number of entries into the open arms relative to the total number of entries into both open and closed arms, expressed as a percentage. These values were accepted as indexes of anxiety in mice.
as §3

BALB/c ByJ mice [3] = experiment: Locomotor activity test (open field); type: in vivo; conditions: for locomotion enhancing effects in the locomotor activity test: male balb-c mice
Protocol: as §1, §2
Locomotor activity was measured using an open field test in a square arena (40 x 40 x 40 cm box). The animal was placed in the center of the apparatus and behaviours were recorded for a period of 5 min using the Etovision-XT video tracking system. The locomotor activity was evaluated by measuring the total distance travelled (cm) in the apparatus and the speed (cm/s) of the animals.
as §3

[4] = tested on: Emperor dragonfly, Anax imperator; conditions: low concentrations of the synthetic peptide injected into the Emperor dragonfly; cited from earlier work
[5] = tested on: adult females of the firebug, Pyrrhocoris apterus (L.); conditions: adult female firebugs, cited from earlier work; for walking activity: simultaneously with elevation of lipid level in the haemolymph
Albino Swiss mice [6] = conditions: injection to Albino Swiss mice (20-25 g); cited from earlier work
Albino Swiss mice [7] = conditions: cited from earlier work
Albino Swiss mice [8] = conditions: cited from earlier work; remark: listed apart in the source
Albino Swiss mice [9] = conditions: administered intracerebroventricularly to mice; cited from earlier work
[10] = chronic, 1 mg/kg i.p. for 14 days, Fig 2c/2e
[11] = chronic, 1 mg/kg i.p. for 14 days, Fig 2d/2f
[12] = chronic, 2 mg/kg i.p. for 14 days, Fig 2c/2e
[13] = chronic, 2 mg/kg i.p. for 14 days, Fig 2d/2f
[14] = 2 mg/kg i.p. for 14 days, compared to control, Fig 3a/3c
[15] = 2 mg/kg i.p. for 14 days, compared to control, Fig 3b/3d

CC(C)[C@H](NC(=O)[C@@H]1CCC(=O)N1)C(=O)N[C@@H](CC(N)=O)C(=O)N[C@@H](Cc1ccccc1)C(=O)N[C@@H](CO)C(=O)N1CCC[C@H]1C(=O)N[C@@H](CO)C(=O)N[C@@H](Cc1c[nH]c2ccccc12)C(N)=O [Ani-AKH, 5-oxo-L-prolyl-L-valyl-L-asparaginyl-L-phenylalanyl-L-seryl-L-prolyl-L-seryl-L-Tryptophanamide] ([pGlu]VNFSPSW-NH2)
immobility time (BALB/c ByJ mice [1]; 1 mg/kg i.p. for 14 days): significantly diminished
antidepressant effects in the forced swimming test (BALB/c ByJ mice [1]; 1 mg/kg i.p.): had antidepressant effects
immobility time (BALB/c ByJ mice [1]; 2 mg/kg i.p. for 14 days): significantly diminished
antidepressant effects in the forced swimming test (BALB/c ByJ mice [1]; 2 mg/kg i.p.): had antidepressant effects
%time spent in the open arms (BALB/c ByJ mice [2]; acute, 0.5 mg/kg i.p., one time before the test, Fig 2a): significantly increased
%open arm/total arm entries (BALB/c ByJ mice [2]; acute, 1 mg/kg i.p., one time before the test, Fig 2b): significantly increased
anxiolytic effects in the elevated plus maze test (BALB/c ByJ mice [2]; administered acutely, 0.5 mg/kg): had anxiolytic effects
anxiolytic effects in the elevated plus maze test (BALB/c ByJ mice [2]; administered acutely, 1 mg/kg): had anxiolytic effects
%time spent in the open arms (BALB/c ByJ mice [2]; [10]): didn't alter
%open arm/total arm entries (BALB/c ByJ mice [2]; [11]): didn't alter
%time spent in the open arms (BALB/c ByJ mice [2]; [12]): didn't alter
%open arm/total arm entries (BALB/c ByJ mice [2]; [13]): didn't alter
total distance moved (BALB/c ByJ mice [3]; [14]): increased
speed of the animals (BALB/c ByJ mice [3]; [15]): increased
locomotion enhancing effects in the locomotor activity test (BALB/c ByJ mice [3]; 2 mg/kg i.p.): had locomotion enhancing effects
haemolymph lipid concentration [4]: increased

CC(C)[C@H](NC(=O)[C@@H]1CCC(=O)N1)C(=O)N[C@@H](CC(N)=O)C(=O)N[C@@H](Cc1ccccc1)C(=O)N[C@H](C(=O)N1CCC[C@H]1C(=O)N[C@@H](CO)C(=O)N[C@@H](Cc1c[nH]c2ccccc12)C(N)=O)[C@@H](C)O [Lia-AKH, 5-oxo-L-prolyl-L-valyl-L-asparaginyl-L-phenylalanyl-L-threonyl-L-prolyl-L-seryl-L-Tryptophanamide] ([pGlu]VNFTPSW-NH2)
immobility time (BALB/c ByJ mice [1]; 1 mg/kg i.p. for 14 days): significantly diminished
antidepressant effects in the forced swimming test (BALB/c ByJ mice [1]; 1 mg/kg i.p.): had antidepressant effects
immobility time (BALB/c ByJ mice [1]; 2 mg/kg i.p. for 14 days): significantly diminished
antidepressant effects in the forced swimming test (BALB/c ByJ mice [1]; 2 mg/kg i.p.): had antidepressant effects
%time spent in the open arms (BALB/c ByJ mice [2]; [12]): significantly increased
%open arm/total arm entries (BALB/c ByJ mice [2]; [13]): significantly increased
anxiolytic effects in the elevated plus maze test (BALB/c ByJ mice [2]; given chronically, 2 mg/kg): had anxiolytic effects
total distance moved (BALB/c ByJ mice [3]; 1 mg/kg i.p. for 14 days, compared to control, Fig 3c): increased
speed of the animals (BALB/c ByJ mice [3]; 1 mg/kg i.p. for 14 days, compared to control, Fig 3d): increased
locomotion enhancing effects in the locomotor activity test (BALB/c ByJ mice [3]; 1 mg/kg i.p.): had locomotion enhancing effects
total distance moved (BALB/c ByJ mice [3]; [14]): increased
speed of the animals (BALB/c ByJ mice [3]; [15]): increased
locomotion enhancing effects in the locomotor activity test (BALB/c ByJ mice [3]; 2 mg/kg i.p.): had locomotion enhancing effects

CC(C)C[C@H](NC(=O)[C@@H]1CCC(=O)N1)C(=O)N[C@H](C(=O)N[C@@H](Cc1ccccc1)C(=O)N[C@@H](CO)C(=O)N1CCC[C@H]1C(=O)N[C@@H](CC(=O)O)C(=O)N[C@@H](Cc1c[nH]c2ccccc12)C(N)=O)[C@@H](C)O [Pht-HrTH, 5-oxo-L-prolyl-L-leucyl-L-threonyl-L-phenylalanyl-L-seryl-L-prolyl-L-alfa-aspartyl-L-Tryptophanamide] ([pGlu]LTFSPDW-NH2)
immobility time (BALB/c ByJ mice [1]; 1 mg/kg i.p. for 14 days): significantly diminished
antidepressant effects in the forced swimming test (BALB/c ByJ mice [1]; 1 mg/kg i.p.): had antidepressant effects
immobility time (BALB/c ByJ mice [1]; 2 mg/kg i.p. for 14 days): significantly diminished
antidepressant effects in the forced swimming test (BALB/c ByJ mice [1]; 2 mg/kg i.p.): had antidepressant effects
%time spent in the open arms (BALB/c ByJ mice [2]; [10]): significantly increased
%open arm/total arm entries (BALB/c ByJ mice [2]; [11]): significantly increased
%time spent in the open arms (BALB/c ByJ mice [2]; [12]): significantly increased
%open arm/total arm entries (BALB/c ByJ mice [2]; [13]): significantly increased
anxiolytic effects in the elevated plus maze test (BALB/c ByJ mice [2]; given chronically, 1 mg/kg): had anxiolytic effects
anxiolytic effects in the elevated plus maze test (BALB/c ByJ mice [2]; given chronically, 2 mg/kg): had anxiolytic effects
locomotion enhancing effects in the locomotor activity test (BALB/c ByJ mice [3]; dose not given, i.p.): had locomotion enhancing effects
total distance moved (BALB/c ByJ mice [3]; dose not printed in the sentence (groups 1 and 2 mg/kg i.p. for 14 days), Fig 3c): increased
speed of the animals (BALB/c ByJ mice [3]; dose not printed in the sentence (groups 1 and 2 mg/kg i.p. for 14 days), Fig 3d): increased

NCCc1ccc(O)c(O)c1 [dopamine]
AKHs level in haemolymph [5]: decreased
level of AKHs in CNS [5]: no effect
mobilization of the fat body lipids [5]: mobilized
walking activity [5]: capable to enhance

NCCc1c[nH]cn1 [histamine]
mobilization of the fat body lipids [5]: mobilized

NC[C@H](O)c1ccc(O)c(O)c1 [norepinephrine]
AKHs level in haemolymph [5]: increased
level of AKHs in CNS [5]: no effect
mobilization of the fat body lipids [5]: mobilized
walking activity [5]: capable to enhance

NCC(O)c1ccc(O)cc1 (stereo not shown) [octopamine]
mobilization of the fat body lipids [5]: mobilized

NCCc1c[nH]c2ccc(O)cc12 [serotonin]
mobilization of the fat body lipids [5]: mobilized

[pGlu]VNFSPNW-NH2 [periplanetin CC-1]
analgesic activity (Albino Swiss mice [6]): strong analgesic activity
mortality in pentetrazole-induced seizures (Albino Swiss mice [7]): increased
threshold for tonic seizures (Albino Swiss mice [7]; pentetrazole-induced seizures): decreased
influence on the electric convulsions (Albino Swiss mice [8]): no influence
peripheral blood glucose level (Albino Swiss mice [9]): did not increase
